Read-outs that look alike come from different tables or passages of the source.
What was measured:
Assay type in all cases: biochemical
LmPTR1 = target: T1, LmPTR1 (Leishmania major, UniProt Q01782); assay: Spectrophotometric enzyme inhibition assay, recombinant LmPTR1
T1 construct: His6 (N); made in house; host or cells: E. coli BL21 (DE3), vector pET 15b::LmPTR1His (strain from the group of M. Paola Costi, Modena)
T1 sequence (Q01782 1-288): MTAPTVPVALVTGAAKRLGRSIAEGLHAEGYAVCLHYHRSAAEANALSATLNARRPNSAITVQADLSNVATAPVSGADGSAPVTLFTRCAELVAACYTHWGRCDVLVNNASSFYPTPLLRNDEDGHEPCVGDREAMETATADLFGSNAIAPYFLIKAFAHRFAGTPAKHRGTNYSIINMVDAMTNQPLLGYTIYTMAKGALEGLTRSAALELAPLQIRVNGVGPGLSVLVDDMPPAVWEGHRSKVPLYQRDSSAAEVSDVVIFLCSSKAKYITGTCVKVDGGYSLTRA
Method: (§1) Based on the in vitro assays against TbPTR1 and LmPTR1 performed in the previous works of our group, as well as the in silico results obtained from the current study, a total of 47 natural products were tested against the target enzymes. […] The concentration-effect curves for the IC50 and EC50 values that were obtained in the present study are depicted in Supplementary Materials Figures S21–S42.
(§2) The used TbPTR1 concentration was 3.23 mg/mL, with a specific activity of 0.03 U/mg. The measurements were carried out using the enzyme’s individual saturating concentrations for folic acid (8 μM) and NADPH (150 μM) in Buffer A (50 mM Tris/HCl (pH 7.6), 250 mM NaCl). For LmPTR1, the protein concentration was 5.02 mg/mL and the specific activity was calculated to be 0.29 U/mg. Buffer B (50 mM NaH2PO4 (pH 6.0), 100 mM NaCl) was used for all LmPTR1 measurements and the saturating concentrations amounted to 50 μM of folic acid and 200 μM of NADPH. The saturating conditions of the PTR1 enzymes were determined using the diagrams depicted in Figures S16 and S18 in the Supplementary Materials.
(§3) The inhibitory effect of the selected natural products was investigated by testing the DMSO solution of each compound at a constant concentration of 100 μM for TbPTR1 and 50 μM for LmPTR1, TbDHFR, and LmDHFR, as well as hDHFR. The concentrations of the cofactor and substrates were set at the previously determined saturating conditions (Section 4.2.5). Each test compound was incubated for 20 min with the respective enzyme and NADPH to ensure a sufficient interaction time before the reaction was induced by the addition of the substrate. The enzymatic activity was determined in duplicates and correlated with a reference that contained just DMSO, instead of an inhibitor. The enzymatic activity of the reference was normalized to 100%.
(§4) The half-maximal inhibitory concentration (IC50) of the natural products was determined in triplicate, using at least five different inhibitor concentrations against a reference containing no inhibitor. The enzymatic activity was documented and analyzed and the IC50 value was determined by nonlinear regression using GraphPad Prism 9 (GraphPad Software Inc., La Jolla, CA, USA).

TbDHFR = target: T2, TbDHFR (Trypanosoma brucei brucei, UniProt Q27783); assay: Spectrophotometric enzyme inhibition assay, recombinant TbDHFR; settings: read-out: IC50 TbDHFR
T2 construct: pET 11D::TbDHFRHis vector design for the recombinant overexpression of TbDHFR in E. coli; His; made in house; host or cells: E. coli BL21(DE3), vector pET 11D::TbDHFRHis
Method: Based on the in vitro assays against TbPTR1 and LmPTR1 performed in the previous works of our group, as well as the in silico results obtained from the current study, a total of 47 natural products were tested against the target enzymes.
The saturating conditions for TbDHFR and LmDHFR were determined using the diagrams depicted in Figures S17 and S19 in the Supplementary Materials.
as §3, §4

hDHFR = target: T3, hDHFR (Homo sapiens, UniProt P00374); assay: Spectrophotometric enzyme inhibition assay, recombinant hDHFR (selectivity)
T3 construct: His; host or cells: E. coli BL21 (DE3), vector pET 15b::hDHFRHis
T3 sequence (P00374 1-187): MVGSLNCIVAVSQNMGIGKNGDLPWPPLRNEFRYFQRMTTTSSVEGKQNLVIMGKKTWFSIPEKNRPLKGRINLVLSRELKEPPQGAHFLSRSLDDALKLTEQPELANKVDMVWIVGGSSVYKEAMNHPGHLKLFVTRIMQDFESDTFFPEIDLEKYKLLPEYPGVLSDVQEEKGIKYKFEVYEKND
Method: For 15 compounds, there was enough substance available to be tested in selectivity studies against hDHFR.
The used hDHFR concentration was 0.64 mg/mL, with a specific activity of 0.62 U/mg. All measurements were carried out using the saturating concentrations for dihydrofolate (100 μM) and NADPH (50 μM) in Buffer C (50 mM Tris/HCl (pH 7.6), 250 mM NaCl, 10 mM BME). The saturating conditions for hDHFR were determined using the diagrams depicted in Figure S20 in the Supplementary Materials.
as §3, §4

TbPTR1 [1] = target: T4, TbPTR1 (Trypanosoma brucei brucei, UniProt O76290); assay: Spectrophotometric enzyme inhibition assay, recombinant TbPTR1; settings: for IC50: read-out: IC50 TbPTR1
T4 construct: His6 (N); made in house; host or cells: E. coli BL21 (DE3), vector pET 15b::TbPTR1His (strain from the group of M. Paola Costi, Modena)
T4 sequence (O76290 1-268): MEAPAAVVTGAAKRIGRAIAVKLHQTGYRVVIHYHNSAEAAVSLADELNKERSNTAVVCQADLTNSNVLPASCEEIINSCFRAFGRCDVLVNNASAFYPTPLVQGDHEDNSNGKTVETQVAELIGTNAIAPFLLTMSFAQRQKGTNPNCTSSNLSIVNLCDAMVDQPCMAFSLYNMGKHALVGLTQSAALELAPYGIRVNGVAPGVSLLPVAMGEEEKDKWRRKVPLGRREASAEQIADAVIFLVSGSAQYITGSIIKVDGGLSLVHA
Method: as §1, §2, §3, §4

LmDHFR = target: T5, LmDHFR (Leishmania major, UniProt P07382); assay: Spectrophotometric enzyme inhibition assay, recombinant LmDHFR; settings: read-out: IC50 LmDHFR
T5 construct: The DNA fragment encoding LmDHFR was amplified by Phusion DNA polymerase; His6 (N); made in house; host or cells: E. coli BL21(DE3), vector pET 11D::LmDHFRHis
T5 sequence (P07382 26-229 limits assumed): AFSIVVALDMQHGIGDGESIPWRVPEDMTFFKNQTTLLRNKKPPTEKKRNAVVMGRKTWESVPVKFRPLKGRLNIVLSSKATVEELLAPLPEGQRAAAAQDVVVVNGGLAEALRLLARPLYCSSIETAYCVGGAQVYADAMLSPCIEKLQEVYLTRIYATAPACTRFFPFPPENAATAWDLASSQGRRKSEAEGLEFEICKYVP
Method: as §1
The TbDHFR concentration was measured to be 0.04 mg/mL and a specific activity of 38.1 U/mg was calculated. The concentration of LmDHFR was 0.05 mg/mL with a specific activity of 56.2 U/mg. All measurements were carried out using the saturating concentrations for dihydrofolate (50 μM) and NADPH (150 μM) in Buffer C (50 mM Tris/HCl (pH 7.6), 250 mM NaCl, 10 mM BME). The saturating conditions for TbDHFR and LmDHFR were determined using the diagrams depicted in Figures S17 and S19 in the Supplementary Materials.
as §3, §4

TbPTR1 [2] = target: T4, TbPTR1; assay: Dilution assay for reversible/irreversible inhibition of TbPTR1; settings: inhibitor concentration near IC50
Description: The catalytic center of TbPTR1 contains a cysteine residue (TbCys168) in close proximity to the substrate/inhibitor binding site. In our previous publication, we mentioned the possibility that Sesquiterpene Lactones 1 and 2 might interact as Michael acceptors with TbCys168 by covalent bond formation with its thiol group. Therefore, we have now subjected a selection of natural product inhibitors containing Michael acceptors (1, 2, 5, 17) to initial testing for irreversible inhibition, according to the dilution method described by Bisswanger (see Section 4.2.9).
In this method, the enzyme activity of the respective enzyme-inhibitor mixture is measured before and after a defined dilution (in this study, 1:2). In the absence of an inhibitor, dilution decreases the enzyme activity proportionally to the dilution factor. […] A reversible inhibitor, on the other hand, will dissociate upon dilution, resulting in a weaker decrease in activity than what corresponds to the dilution effect. In the presence of Inhibitors 1 and 2, the decrease in TbPTR1 activity upon the 1:2 dilution was almost proportional to the dilution factor, i.e., only 9.5% and 6.8% activity, respectively, were recovered compared to the reference. This would indeed support an irreversible mechanism of inhibition. […] However, further investigations on these compounds’ mechanisms of inhibition are under way.
To assign an either reversible or irreversible inhibition mechanism to selected compounds, the enzymatic activity of an enzyme-inhibitor mixture was determined before and after a defined dilution, using the reaction conditions described in Section 4.2.5 [16].
Two equivalent solutions with the respective enzyme and inhibitor combination were prepared, one of them being diluted with buffer in a 1:2 ratio shortly before the reaction was started by adding the substrate. The respective inhibitor concentration was set near the IC50 value. The substrate and cofactor concentrations were kept constant in both reaction mixtures. All measurements were carried out in duplicates against a reference containing DMSO instead of the inhibitor. […] If a reversible inhibitor was present, a higher degree of activity recovery (>>10%) could be observed than what corresponds to the dilution factor due to the partial dissociation of the inhibitor from the enzyme upon dilution. The percentual changes in the enzymatic activity of the undiluted and diluted test solution were compared and evaluated to decide the mechanism of inhibition.

T2 sequence (Q27783 28-238 limits assumed): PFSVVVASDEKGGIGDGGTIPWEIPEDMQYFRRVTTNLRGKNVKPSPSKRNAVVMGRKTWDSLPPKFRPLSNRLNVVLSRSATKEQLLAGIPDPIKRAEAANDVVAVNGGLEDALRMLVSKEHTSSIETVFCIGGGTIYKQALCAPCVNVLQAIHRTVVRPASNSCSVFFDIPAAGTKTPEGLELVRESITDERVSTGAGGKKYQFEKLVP

| Structure (SMILES) | IC50 (LmPTR1; read-out: IC50 LmPTR1) | IC50 (TbDHFR) | IC50 (TbPTR1 [1]) | also measured |
| --- | --- | --- | --- | --- |
| COc1cc(-c2oc3c(OC)c(O)cc(O)c3c(=O)c2OC)c(OC)c(OC)c1OC [Compound 23, 5,7-dihydroxy-3,3′,4′,5′,6′,8-hexamethoxyflavone] |  |  |  | TbPTR1 activity recovered upon 1:2 dilution compared to the reference (TbPTR1 [2]): about 33% |
| C=C(CO)C(=O)O[C@H]1CC(=C)[C@@H]2C[C@H](O)C(=C)[C@@H]2[C@H]2OC(=O)C(=C)[C@@H]21 [Compound 2, cynaropicrin] |  |  |  | IC50 (LmPTR1): > 50 µM; inhibitory effect against LmPTR1 (LmPTR1): No relevant inhibitory effect; IC50 (TbDHFR; recombinant enzyme, >50 = <50% inhibition at 50 μM): 7.12 µM; IC50 (hDHFR): > 50000 nM; inhibition of hDHFR (hDHFR): no relevant inhibition; TbPTR1 activity recovered upon 1:2 dilution compared to the reference (TbPTR1 [2]): 6.8% |
| COc1ccc2c(c1)CCN=C2Cc1cc(OCc2ccccc2)c(OC)cc1C [Compound 19] |  | > 50 µM | 75.1 µM |  |
| OC[C@H]1O[C@@H](Oc2c(O)cc(O)cc2/C=C/c2ccc(O)cc2)[C@H](O)[C@@H](O)[C@@H]1O [Compound 10] | > 50 µM | > 50 µM | 83.6 µM | IC50 (LmDHFR): > 50000 nM |

The remaining compounds from weak to strong by IC50 (TbDHFR), led by results:

| IC50 (LmPTR1; read-out: IC50 LmPTR1) | IC50 (TbDHFR) | IC50 (TbPTR1 [1]) | Structure (SMILES) | also measured |
| --- | --- | --- | --- | --- |
| > 50 µM | 11.7 µM | 64.6 µM | CC(C)=CCc1c(O)ccc(C(=O)CCc2ccc(O)cc2)c1O [Compound 16] |  |
| > 50 µM | 2.9 µM |  | CC(C)=CCC/C(C)=C/COc1ccc2oc3cc(O)cc(O)c3c(=O)c2c1 [Compound 15] | EC50 (TbPTR1 [1]; read-out: EC50 TbPTR1 (footnote a)): 32.4 µM |
|  | 0.6 µM | 74.4 µM | COc1c(O)cc2c(=O)c3c(O)cc(O)c(CC=C(C)C)c3oc2c1CC=C(C)C [Compound 13] |  |
| 10.2 µM | 0.2 µM | 20.1 µM | CCC/C=C\C/C=C\CCCCCCCc1cccc(O)c1C(=O)O [Compound 11] | IC50 (hDHFR): 2400 nM; inhibition at 50 µM (hDHFR; set compound concentration of 50 μM, read-out: relative inhibition of hDHFR): > 50%; IC50 (LmDHFR): 2600 nM |
